Reference: patent US10221129B2, “Inhibitors of human immunodeficiency virus replication” (ViiV HEALTHCARE UK (NO.5) LIMITED, priority 2015, dated 2019)

Columns and labels:
[1] = system: recombinant NL4-3 virus (nef section replaced with Renilla luciferase gene) in MT-2 cells; test: HIV cell culture assay (antiviral activity, luciferase readout); type: cell-based; conditions: Renilla, NL43, MT-2 cells infected for 4-5 days with recombinant NL4-3 Renilla luciferase virus
In short: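 Serial compound dilutions tested in MT-2 cells infected for 4-5 days with 293T-derived NL4-3 virus carrying Renilla luciferase in place of part of nef. Antiviral activity quantified as luciferase activity, read with a live-cell substrate.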

[2] = Compound cytotoxicity, XTT-based colorimetric assay; type: cell-based; conditions: human, uninfected MT2 cells, day 4, XTT
In short: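 Run under the antiviral-assay protocol but without virus. Viability was read on day 4 and CC50 values were derived from the readout.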

SMILES | EC50 [1] [nM] | CC50 at 4 days [2] [nM]
COc1ccc(N(C)C(=O)[C@H](Cc2ccccc2)NC(=O)NS(=O)(=O)Nc2ccccc2Cl)cc1 [JB-5] | 100 | > 100000
COc1ccc(N(C)C(=O)[C@H](Cc2ccccc2)NC(=O)NS(=O)(=O)N(C)c2ccccc2Cl)cc1 [JB-6] | 660 | > 100000
COc1ccc(N(C)C(=O)[C@H](Cc2ccccc2)NC(=O)NS(=O)(=O)N2CCc3ccccc3C2)cc1 [JB-7] | 200 | > 100000
COc1ccc(N(C)C(=O)[C@H](Cc2ccccc2)NC(=O)NS(=O)(=O)N2CC(c3ccccc3)C2)cc1 [JB-8] | 2690 | > 100000
COc1ccc(N(C)C(=O)[C@H](Cc2ccccc2)NC(=O)NS(=O)(=O)n2c3ccccc3c3ccccc32)cc1 [JB-9] | 440 | 74200
CN(C(=O)[C@H](Cc1ccccc1)NC(=O)NS(=O)(=O)Nc1ccccc1Cl)c1ccc2ncccc2c1 [JB-10] | 50 | > 100000
CN(C(=O)[C@H](Cc1ccccc1)NC(=O)NS(=O)(=O)N(C)c1ccccc1Cl)c1ccc2ncccc2c1 [JB-11] | 40 | > 100000
COc1ccccc1NS(=O)(=O)NC(=O)N[C@@H](Cc1ccccc1)C(=O)N(C)c1ccc2ncccc2c1 [JB-12] | 170 | 57700
COc1ccccc1N(C)S(=O)(=O)NC(=O)N[C@@H](Cc1ccccc1)C(=O)N(C)c1ccc2ncccc2c1 [JB-13] | 260 | > 33300
COc1ccc(N(C)C(=O)[C@H](Cc2ccccc2)NC(=O)NS(=O)(=O)N2CCCCC2)cc1 [JB-14] | 690 | > 100000
COc1ccc(N(C)C(=O)[C@H](Cc2ccccc2)NC(=O)NS(=O)(=O)N(C)C)cc1 [JB-15] | 1920 | > 100000
COc1ccc(N(C)C(=O)[C@H](Cc2ccccc2)NC(=O)NS(=O)(=O)Nc2ccccc2OC)cc1 [JB-16] | 170 | > 100000
COc1ccc(N(C)C(=O)[C@H](Cc2ccccc2)NC(=O)NS(=O)(=O)Nc2ccccc2C)cc1 [JB-17] | 80 | > 100000
COc1ccc(N(C)C(=O)[C@H](Cc2ccccc2)NC(=O)NS(=O)(=O)N(C)c2ccccc2C)cc1 [JB-18] | 560 | > 100000
COc1ccc(N(C)C(=O)[C@H](Cc2ccccc2)NC(=O)NS(=O)(=O)Nc2cccc(Cl)c2)cc1 [JB-19] | 50 | > 100000
COc1ccc(N(C)C(=O)[C@H](Cc2ccccc2)NC(=O)NS(=O)(=O)Nc2cccc(OC)c2)cc1 [JB-20] | 100 | > 100000
COc1ccc(N(C)C(=O)[C@H](Cc2ccccc2)NC(=O)NS(=O)(=O)Nc2cccnc2)cc1 [JB-21] | 1780 | > 100000
COc1ccc(N(C)C(=O)[C@H](Cc2ccccc2)NC(=O)NS(=O)(=O)Nc2ccc(Cl)cc2)cc1 [JB-22] | 70 | > 100000
COc1ccc(N(C)C(=O)[C@H](Cc2ccccc2)NC(=O)NS(=O)(=O)N(C)c2ccccc2OC)cc1 [JB-23] | 870 | > 100000
COc1ccc(N(C)C(=O)[C@H](Cc2ccccc2)NC(=O)NS(=O)(=O)Nc2cccc(C)c2)cc1 [JB-24] | 100 | > 100000

SMILES | EC50 [1] [nM] | CC50 at 4 days [2] [nM]
COc1ccc(N(C)C(=O)[C@H](Cc2ccccc2)NC(=O)NS(=O)(=O)N(C)c2cccc(C)c2)cc1 [JB-25] | 80 | > 100000
COc1ccc(N(C)C(=O)[C@H](Cc2ccccc2)NC(=O)NS(=O)(=O)Nc2ccc(C)cc2)cc1 [JB-26] | 40 | > 100000
COc1ccc(NS(=O)(=O)NC(=O)N[C@@H](Cc2ccccc2)C(=O)N(C)c2ccc(OC)cc2)cc1 [JB-27] | 150 | > 100000
COc1ccc(N(C)C(=O)[C@H](Cc2ccccc2)NC(=O)NS(=O)(=O)N(C)c2ccc(OC)cc2)cc1 [JB-28] | 210 | > 100000
COc1ccc(N(C)C(=O)[C@H](Cc2ccccc2)NC(=O)NS(=O)(=O)Nc2ncccn2)cc1 [JB-29] | 1600 | > 100000
COc1ccc(N(C)C(=O)[C@H](Cc2ccccc2)NC(=O)NS(=O)(=O)N(C)CC(=O)N(C)C)cc1 [JB-30] | 1950 | > 100000
COc1ccc(N(C)C(=O)[C@H](Cc2ccccc2)NC(=O)NS(=O)(=O)N2CCc3cccnc32)cc1 [JB-31] | 140 | > 100000
COc1ccc(N(C)C(=O)[C@H](Cc2ccccc2)NC(=O)NS(=O)(=O)Nc2nccc3ccccc23)cc1 [JB-32] | 1450 | > 100000
COc1ccc(N(C)C(=O)[C@H](Cc2ccccc2)NC(=O)NS(=O)(=O)NCCc2ccccc2)cc1 [JB-33] | 680 | > 100000
COc1ccc(N(C)C(=O)[C@H](Cc2ccccc2)NC(=O)NS(=O)(=O)N(C)c2cccc(OC)c2)cc1 [JB-34] | 80 | > 100000
COc1ccc(N(C)C(=O)[C@H](Cc2ccccc2)NC(=O)NS(=O)(=O)N(C)c2ccc(Cl)cc2)cc1 [JB-35] | 80 | > 100000
COc1ccc(N(C)C(=O)[C@H](Cc2ccccc2)NC(=O)NS(=O)(=O)Nc2ccc3[nH]cnc3c2)cc1 [JB-36] | 2260 | > 100000
COc1ccc(N(C)C(=O)[C@H](Cc2ccccc2)NC(=O)NS(=O)(=O)N(C)c2cccc(Cl)c2)cc1 [JB-37] | 60 | > 100000
COc1ccc(N(C)C(=O)[C@H](Cc2ccccc2)NC(=O)NS(=O)(=O)NCc2ccccc2F)cc1 [JB-38] | 1600 | > 100000
COc1ccc(N(C)C(=O)[C@H](Cc2ccccc2)NC(=O)NS(=O)(=O)NCc2ccccn2)cc1 [JB-39] | 1380 | > 100000
COc1ccc(N(C)C(=O)[C@H](Cc2ccccc2)NC(=O)NS(=O)(=O)N(C)C(c2ccccc2)c2ccccc2)cc1 [JB-40] | 2880 | 66500
CCc1ccc(CN(C)S(=O)(=O)NC(=O)N[C@@H](Cc2ccccc2)C(=O)N(C)c2ccc(OC)cc2)cc1 [JB-41] | 5060 | > 33300
COc1ccc(N(C)C(=O)[C@H](Cc2ccccc2)NC(=O)NS(=O)(=O)NCc2nccs2)cc1 [JB-43] | 760 | > 100000
COc1ccc(N(C)C(=O)[C@H](Cc2ccccc2)NC(=O)NS(=O)(=O)N2Cc3ccncc3C2)cc1 [JB-44] | 1750 | > 100000
COc1ccc(N(C)C(=O)[C@H](Cc2ccccc2)NC(=O)NS(=O)(=O)NCc2cnc3ccccc3c2)cc1 [JB-45] | 9450 | > 50000

SMILES | EC50 [1] [nM] | CC50 at 4 days [2] [nM]
COc1ccc(N(C)C(=O)[C@H](Cc2ccccc2)NC(=O)NS(=O)(=O)Nc2cc(F)cc(F)c2)cc1 [JB-46] | 80 | > 100000
COc1ccc(N(C)C(=O)[C@H](Cc2ccccc2)NC(=O)NS(=O)(=O)NCc2cccc(-n3cccn3)c2)cc1 [JB-47] | 3410 | > 100000
COc1ccc(N(C)C(=O)[C@H](Cc2ccccc2)NC(=O)NS(=O)(=O)Nc2cc(F)ccc2F)cc1 [JB-48] | 170 | > 100000
COc1ccc(N(C)C(=O)[C@H](Cc2ccccc2)NC(=O)NS(=O)(=O)Nc2cc(Cl)ccc2F)cc1 [JB-49] | 200 | > 100000
COc1ccc(N(C)C(=O)[C@H](Cc2ccccc2)NC(=O)NS(=O)(=O)Nc2ccc(F)cc2)cc1 [JB-50] | 100 | > 100000
COc1ccc(N(C)C(=O)[C@H](Cc2ccccc2)NC(=O)NS(=O)(=O)Nc2ccc(F)c(F)c2)cc1 [JB-51] | 110 | > 100000
COc1ccc(N(C)C(=O)[C@H](Cc2ccccc2)NC(=O)NS(=O)(=O)Nc2ccc(NC(=O)N(C)C)cc2)cc1 [JB-52] | 5940 | > 100000
COc1ccc(N(C)C(=O)[C@H](Cc2ccccc2)NC(=O)NS(=O)(=O)N2CCCCC2c2ccccc2)cc1 (stereo partly shown) [JB-53] | 1100 | 85500
COc1ccc(N(C)C(=O)[C@H](Cc2ccccc2)NC(=O)NS(=O)(=O)NCc2ccc3nc(C)[nH]c3c2)cc1 [JB-54] | 12000 | > 100000
COc1ccc(N(C)C(=O)[C@H](Cc2ccccc2)NC(=O)NS(=O)(=O)NCc2cncn2C)cc1 [JB-55] | 14800 | > 100000
COc1ccc(N(C)C(=O)[C@H](Cc2ccccc2)NC(=O)NS(=O)(=O)NCc2ccccc2)cc1 [JB-56] | 1870 | > 100000
COc1ccc(N(C)C(=O)[C@H](Cc2ccccc2)NC(=O)NS(=O)(=O)NCc2cccc(F)c2)cc1 [JB-57] | 6430 | > 100000
COc1ccc(N(C)C(=O)[C@H](Cc2ccccc2)NC(=O)NS(=O)(=O)NC(C)c2cccc(C)n2)cc1 (stereo partly shown) [JB-58] | 690 | > 100000
COc1ccc(N(C)C(=O)[C@H](Cc2ccccc2)NC(=O)NS(=O)(=O)NCc2cc(C)on2)cc1 [JB-59] | 1860 | > 100000
COc1ccc(N(C)C(=O)[C@H](Cc2ccccc2)NC(=O)NS(=O)(=O)NC(C)c2cnn(C)c2C)cc1 (stereo partly shown) [JB-60] | 270 | > 100000
COc1ccc(N(C)C(=O)[C@H](Cc2ccccc2)NC(=O)NS(=O)(=O)Nc2cccc(C(N)=O)c2)cc1 [JB-61] | 4910 | > 100000
COC(=O)Nc1ccc(NS(=O)(=O)NC(=O)N[C@@H](Cc2ccccc2)C(=O)N(C)c2ccc(OC)cc2)cc1 [JB-62] | 290 | > 100000
COc1ccc(N(C)C(=O)[C@H](Cc2ccccc2)NC(=O)NS(=O)(=O)NCc2nccn2C)cc1 [JB-63] | 6500 | > 100000
COc1ccc(N(C)C(=O)[C@H](Cc2ccccc2)NC(=O)NS(=O)(=O)NC(C)c2csc(C)n2)cc1 (stereo partly shown) [JB-64] | 680 | > 100000
